Non-standard residues stand in square brackets, D forms with d. Residues, ends and D or L forms follow the SMILES beside them. *: point of attachment. PEG8 = NCCOCCOCCOCCOCCOCCOCCOCCOCCC(=O)O; Palmitoyl = CCCCCCCCCCCCCCCC(=O)*; Tic = O=C(O)[C@@H]1Cc2ccccc2CN1
Assays:
Male FVB mice = assay: Ovalbumin sensitization and aerosol challenge model of allergic airway inflammation; type: in vivo, mouse; settings: Day 18
Excerpt: Representative photographs are taken at 20× magnification. (C) Lung tissue sections at Day 18 were obtained from fixed, paraffin-embedded lung tissue stained with hematoxylin and eosin. Representative photographs are taken at both 20× and 40×. (D) Total BALF cells and leukocyte subsets were quantified on Day 18 and compared between mice receiving DMSO or l-Stable Chem. Data are representative of the mean±S.E.M. from n=3-8 mice per group. Comparison of DMSO control to l-Stable Chem: *p<0.05.
Male FVB mice age 5-7 weeks (Charles River Laboratories) were housed under viral antibody-free conditions. Ovalbumin (OVA) sensitization and drug administration were performed as previously described with slight modifications. Briefly, mice were sensitized with intraperitoneal injection of 10 μg OVA (Grade III: Sigma) on days 0 and 7. On days 14, 15, 16, and 17, mice received a 25 minute aerosol challenge of 6% (wt/vol) OVA each day. On each of these days, 30 min prior to OVA challenge, mice were given 20 μL of lipidated stable chemerin (21 mM stock in DMSO diluted 1:100 in saline for a final concentration of 210 μM) by the intranasal route. Corresponding controls received DMSO diluted 1:100 in saline. On day 18 or 22, bronchoalveolar lavage fluid (BALF) was collected; animals were sacrificed for histological assessment. […] Cells in BALF were resuspended in PBS and counted with a hemocytometer; cytospins were done via cytocentrifugation (265 g; StatSpin). Cells from the cytospin were stained with Wright-Giemsa stain (Sigma) for quantification of leukocyte subsets. At least 200 cells were counted per slide. […] On the 5th day (corresponding to day 18), mice were sacrificed and BALF collected and analyzed as described above.
Given the high potency, stability, and wash resistance of the lipidated stable chemerin analog, the anti-inflammatory activity of this compound in vivo was examined. […] Markers of inflammation were assessed at day 18 (time course: FIG. 6A).

Adult CD1 mice = assay: Chronic constriction injury neuropathic pain model, von Frey and acetone tests; type: in vivo, mouse; settings: intrathecal 100 pmol, 1 week after nerve injury
Excerpt: Intrathecal injection of 1-stable chem (100 pmol), 1 week after CCI, reduces CCI-induced mechanical hypersensitivity (panels A+C) and cold allodynia (panel E). Intrathecal injection of ResolvinE1 (RvE1)(100 pmol), 1 week after CCI, reduces CCI-induced mechanical hypersensitivity (panels B+D) and cold allodynia (panel F). BL=baseline before surgery.
Adult CD1 mice (male, 25-35 g) were used for behavioral studies. Mice were group-housed and kept under a 12-hour light/dark cycle. […]
Nerve injury-induced mechanical allodynia and hypersensitivity were assessed by von Frey hairs as previously described (see Xu et al., Resolvin E1 inhibits neuropathic pain and spinal cord microglial activation following peripheral nerve injury, 2013, J. Neuroimmune Pharmacol, 8: 37-41). […] The 50% paw withdrawal threshold (PWT) was determined using Dixon's up-down method. For paw withdrawal frequency (PWF), the same von Frey hair (0.16 g) was applied 10 times and the number of positive responses to the stimulations counted. A positive response was scored if the mouse sharply withdrew the paw or flinched upon removal of the stimulus. […] In brief, a drop of acetone was placed against the plantar paw of the mouse and the mouse's response monitored for the next 20 seconds. […]

[1] = tested on: HEK293 cells transfected with vector control (pcDNA1.1); assay: Luciferase reporter assay in cells transfected with vector control; type: cell-based, human; settings: cells transfected with pcDNA1.1 vector control
Method: (§1) Receptor-mediated signaling was assessed as previously described. Briefly, HEK293 cells were plated at a density of 6,000 cells/well into 96-well clear-bottom plates and grown to ˜80% confluence. […] Expression of Gq5i66V directs signaling of the Gαi-coupled chemerin receptor to stimulation of a Gαq-dependent SRE5x-Luc-PEST reporter gene. For experiments investigating the agonist function of soluble and lipidated peptides, tethered ligand cDNA was not included in the transfection mixture. Twenty four hours after transfection, cells were stimulated with or without peptide agonist for 4 hours in serum-free medium. […] Following ligand stimulation, the media was aspirated and luciferase activity measured using SteadyLite reagent and quantified using a TopCount NTX. A β-galactosidase assay was then performed following assessment of luminescence. Cleavage of 2-nitrophenyl β-D-galactopyranoside substrate was quantified after incubation of cell lysates at 37° C. for 30 to 60 minutes by measuring the optical density at 420 nm on a SpectraMax microplate reader. Luciferase reporter gene activities were normalized to corresponding β-galactosidase activity controls.

human CMKLR1 [2] = target: T1, human CMKLR1 (Homo sapiens, UniProt Q99788); assay: SRE-luciferase reporter gene assay in transfected HEK293 cells; settings: pEC50, Human CMKLR1, no wash; mean ± S.E.M.
T1 sequence (Q99788 1-373): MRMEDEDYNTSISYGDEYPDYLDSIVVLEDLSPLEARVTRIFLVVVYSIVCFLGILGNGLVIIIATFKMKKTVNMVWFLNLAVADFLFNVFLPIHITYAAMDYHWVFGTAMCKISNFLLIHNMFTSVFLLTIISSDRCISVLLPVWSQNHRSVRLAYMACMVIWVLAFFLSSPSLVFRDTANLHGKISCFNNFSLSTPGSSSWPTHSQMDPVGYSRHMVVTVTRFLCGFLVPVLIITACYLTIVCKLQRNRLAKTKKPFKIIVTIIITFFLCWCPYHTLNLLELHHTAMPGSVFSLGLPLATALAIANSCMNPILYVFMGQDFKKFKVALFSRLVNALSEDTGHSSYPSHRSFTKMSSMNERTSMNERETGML
Method: as §1
(§2) HEK293 cells were transiently transfected with cDNAs encoding i) human or mouse CMKLR1, ii) a SRE5x-Luc reporter gene, iii) a Gαq5i66V chimera, and iv) a β-galactosidase control. Twenty-four hours after transfection, cells were stimulated with ligand for 4 hours and luciferase activity determined as described in Experimental Procedures. Luciferase activity was normalized relative to the maximal value observed using saturating concentrations of the corresponding soluble ligand (=100%). […] As a next step, the effect of membrane anchoring on chemerin activity was examined. […] HEK293 cells were transiently transfected with cDNAs encoding i) various tethered ligands, ii) human or mouse CMKLR1, iii) a SRE5x-Luc reporter gene, iv) aGαq5i66V chimera, and v) a β-galactosidase control. Twenty-four hours after transfection, luciferase activity was determined as described in Experimental Procedures.
(§3) HEK293 cells were transiently transfected with cDNAs encoding i) 8 ng of various tethered ligands, ii) human or mouse CMKLR1, iii) a SRE5x-Luc reporter gene, iv) a Gαq5i66V chimera, and v) a β-galactosidase control. Twenty-four hours after transfection, luciferase activity was determined as described in Experimental Procedures.

mouse CMKLR1 [3] = target: T2, mouse CMKLR1 (Mus musculus, UniProt P97468); assay: as above
T2 sequence (P97468 1-371): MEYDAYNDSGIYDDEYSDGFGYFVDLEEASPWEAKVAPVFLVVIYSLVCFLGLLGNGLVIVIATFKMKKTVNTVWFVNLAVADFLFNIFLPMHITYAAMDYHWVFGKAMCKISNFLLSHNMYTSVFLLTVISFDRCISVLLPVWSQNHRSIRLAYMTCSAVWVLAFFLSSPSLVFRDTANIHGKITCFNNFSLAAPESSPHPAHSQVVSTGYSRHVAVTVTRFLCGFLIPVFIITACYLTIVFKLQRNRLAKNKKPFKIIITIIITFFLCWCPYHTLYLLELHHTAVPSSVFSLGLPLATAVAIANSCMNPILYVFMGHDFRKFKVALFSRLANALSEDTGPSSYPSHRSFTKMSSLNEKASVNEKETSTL
Method: as §1, §2, §3

human CMKLR1 [4] = target: T1, human CMKLR1; assay: Washout experiments (serial washes after 15 min ligand, luciferase readout)
Method: (§4) Agonist activity was compared with and without serial washings shortly after addition of ligand. Briefly, HEK293 cells were plated and transfected as described above with the addition of a poly-L-lysine plate pretreatment step to enhance cell adhesion. Twenty-four hours after transfection, cells were stimulated with increasing concentrations of agonist for 15 minutes at 37° C. Selected wells were washed three times with serum-free media. Plates were then incubated for an additional 4 hours. Receptor mediated signaling was assessed using a luciferase based assay as described above.
(§5) HEK293 cells were transiently transfected with cDNAs encoding i) human or mouse CMKLR1, ii) a SRE5x-Luc reporter gene, iii) a Gαq5i66V chimera, and iv) a β-galactosidase control. Twenty-four hours after transfection, cells were stimulated with increasing concentrations of various ligands for 15 minutes. Selected wells were then washed three times with serum-free media and plates were further incubated for 4 hours.

mouse CMKLR1 [5] = target: T2, mouse CMKLR1; assay: as above
Method: as §4, §5

[6] = three washes after 15 min ligand

CCCCCCCCCCCCCCCC(=O)NCCOCCOCCOCCOCCOCCOCCOCCOCCC(=O)NCC(=O)NCC(=O)N[C@H](Cc1ccc(O)cc1)C(=O)N[C@@H](Cc1ccccc1)C(=O)N[C@@H](CC(C)C)C(=O)N1CCC[C@H]1C(=O)N[C@H](CO)C(=O)N[C@@H](CCC(N)=O)C(=O)N[C@@H](Cc1ccccc1)C(=O)N[C@H](C)C(=O)N1Cc2ccccc2C[C@H]1C(=O)N[C@@H](CO)C(=O)O [I-Stable Chem] ({Palmitoyl-PEG8}-GG[dY]FLP[dS]QF[dA][Tic]S-OH)
Lung inflammatory response (H+E staining) (Male FVB mice; in comparison to DMSO controls): Less leukocyte infiltration and fewer reactive bronchial epithelial cells | Number of eosinophils in bronchoalveolar lavage fluid (Male FVB mice; intranasal, 30 min prior to OVA challenge, versus DMSO): decreased | Airway epithelial mucus (PAS staining) (Male FVB mice; versus DMSO control): most pronounced attenuation of mucus metaplasia | Duration of significant reduction of established mechanical and cold allodynia (Adult CD1 mice): greater than 24 hours | Agonist activity without CMKLR1 expression [1]: no agonist activity | EC50 (human CMKLR1 [2]): 2.57 nM | EC50 (mouse CMKLR1 [3]; EC50 (nM), Mouse CMKLR1, no wash, HEK293 luciferase reporter): 2 nM | EC50 (mouse CMKLR1 [3]; pEC50, Mouse CMKLR1, no wash, mean ± S.E.M.): 2 nM | EC50 (human CMKLR1 [4]; pEC50, Human CMKLR1, + wash, washed three times after 15 min ligand, then 4 hours): 25.1 nM | Agonist activity after serial washes, human CMKLR1 (human CMKLR1 [4]; [6]): persisted despite washing | EC50 (mouse CMKLR1 [5]; pEC50, Mouse CMKLR1, + wash, washed three times after 15 min ligand, then 4 hours): 11 nM | Agonist activity after serial washes, mouse CMKLR1 (mouse CMKLR1 [5]; [6]): persisted despite washing

Source: patent publication US11254720B2, “Methods and systems for designing and/or characterizing soluble lipidated ligand agents” (Tufts Medical Center, priority 2013, dated 2022)
